In patent publication US7053052B2, “Therapies involving mutated heat shock transcription factor” (priority 1997, dated 2006):
“Also recorded” adds a separate entry of the source.

Columns and labels:
[1] = system: HepG2 cells; experiment: Mortality from simulated ischemia (LDH release); assay type: cell-based, human
Procedure: After heat treatment, cultures were incubated overnight at 37° C. When trypan blue exclusion was used as the criterion for cell survival, cells (unattached and attached) were harvested, and trypan blue-excluding cells were counted in a hemocytometer. In some experiments, cell killing was estimated by the lactate dehydrogenase (LDH) release assay, using the LDH Assay Kit from Sigma Corp. (St. Louis, Mo.). To quantify detachment from the substratum, cultures were washed three times with prewarmed DMEM, and the number of cells remaining on dishes were determined using a hemocytometer. […] Ischemic conditions were simulated as described previously (Mestril, R. et al., J. Clin. Invest., 93:759–767 (1994)). Briefly, cells were placed in slightly hypotonic HBSS (1.3 mM CaCl2, 5 mM KCl, 0.3 mM KH2PO4, 0.5 mM MgCl2, 0.4 mM MgSO4, 69 mM NaCl, 4 mM NaHCO3, 0.3 mM Na2HPO4) without glucose or serum, and made hypoxic for 4–6 hours at 37° C. Control cells were left under normoxic conditions for the same period of time. Hypoxia was achieved by using an air-tight jar from which oxygen was removed by displacement with argon. After 10 minutes of gas exchange, the oxygen concentration was <0.2%. Hypoxia was maintained using the oxygen-consuming GasPak System from BBL Microbiology Systems (Cockeysville, Md.).

[2] = system: endogenous hsp genes in HeLa-CAT cells; experiment: Expression of endogenous hsps (anti-hsp western blot, 3H-leucine labeling/fluorography); assay type: cell-based, human
Procedure: Cells were scraped of dishes and lysed in buffer C. Aliquots containing equal amounts of cell protein as well as prestained molecular weight markers were applied to 8.5% SDS-PAGE gels. Following electrophoresis, proteins were transferred to Immobilon-P Transfer Membranes (Millipore Corp., Bedford, Mass.), and membranes were blocked by incubation with TBS (25 mM Tris-HCl, pH 8.0, 0.136 M NaCl, 2.7 mM KCl) with 2% nonfat dry milk. Appropriate sections of membranes were incubated with anti-HSF1 polyclonal antibody (Baler, R. et al., Mol. Cell. Biol., 13:2486–2496 (1993)), anti-Hsp antibodies (all from StressGen Biotechnologies Corp., Victoria, B C) or anti-actin antibody (Amersham, Arlington Heights, Ill.). Following three washes with TBS, membranes were reblocked and incubated with second antibody (horseradish peroxidase-conjugated anti-mouse or anti-rabbit IgG (Amersham). After several washes in TBS, membranes were developed using the ECL Western Blot Detection Kit (Amersham).
To avoid the apparent problem with low transfection efficiency altogether, the transfection approach was substituted by an infection approach. The mutHSF cDNA (HSF1(+)) was inserted behind a cytomegalovirus promoter flanked by adenoviral sequences in plasmid vector AC CMV pLpA SR (+). Human 293 cells expressing the adenovirus E1A region genes were co-transfected with plasmid vector lacking an inserted foreign gene or plasmid vector containing mutHSF and plasmid JM17 containing the bulk of adenovirus sequences. By recombination of sequences on the two types of plasmids, adenoviral genomes were created that lacked the EIA region (replication-defective) but contained a cytomegalovirus promoter (control virus) or a cytomegalovirus promoter linked to the mutHSF gene and that were packaged into defective virus particles (mutHSF virus)(See Graham and Prevec, 1991, for a description of the methodology used to create the adenovirus vehicles). Viral plaques were isolated and expanded, and the viral genomes were analyzed by restriction enzyme digestion. Infections with viruses were performed at a multiplicity of infection (MOI) of about 5. Three groups of 50% confluent cultures of HeLa-CAT cells were set up. The first group was infected with mutHSF virus (Ade-HSF1(+)), the second group with control virus (Ade), and the third group received no virus. The three groups of cultures were then incubated for 15, 24 and 36 hours, respectively, and were subsequently harvested. Extracts were prepared as before.
Even synthesis of the typically less inducible hsps such as hsp73 (also known as hsc70) and hsp60 was enhanced. […] The hsp90 antibody used may have detected both the inducible and constitutive forms of hsp90, masking a more dramatic induction of the inducible form. […]

[3] = system: human hsp70B promoter-driven chloramphenicol acetyltransferase (CAT) gene; experiment: hsp70B-CAT reporter gene assay in HeLa-CAT cells; assay type: cell-based
Procedure: CAT assays were performed using the chromatographic assay of Gorman, C. M. et al., Mol. Cell. Biol., 2:1044–1051 (1982)). DNA replication was assessed by a standard ^3H-thymidine incorporation assay. In most experiments, including all western blot assays, standardization was based on protein content. All protein determinations were made using the Bradford method. In a few experiments involving sorted cells, standardization was based on cell numbers. All experiments were repeated at least twice, and, in most cases, each data point was derived from assays of 3–5 parallel samples.
To find out whether HSF1(−) could function as a negatively acting factor, HeLa-CAT cells containing integrated copies of an hsp70B-chloramphenicol acetyltransferase (CAT) gene were co-transfected with an HSF1(−) and an EFGP-expressing construct. […] To determine whether elevated Hsp levels induced by heat preconditioning are required for development of tolerance measured as an increased rate of recovery from heat-induced translational arrest, cultures co-transfected with EGFP- and HSF1(−)-expressing constructs or transfected with EGFP-expressing construct only (control cultures) were mildly heat-preconditioned (41° C./1 hour) and, 3 hours later, subjected to a 44° C./30 minutes (severe) heat shock. […] Rates of protein synthesis were assessed by pulse-labeling cells with ^3H-leucine. […]

[4] = 15, 24, 36 hours after infection

Substance	decrease of mortality from simulated ischemia [1]	Hsp90 levels (western blot) [2, 4]	expression of hsp72 and hsp27 (western blot) [2, 4]	synthesis of hsp73 and hsp60 (western blot) [2, 4]	activation of hsp70B-CAT genes in the absence of stress ([3]; no heat shock, listed as mutHSF)	heat-induced Hsp accumulation (anti-Hsp72 western blot) ([2]; 41° C./1 hour heat shock)	heat-induced hsp70B-CAT reporter expression ([3]; 41° C./1 hour heat shock, FACS-isolated cells)
human HSF1d202–316 [HSF1(+)]	more than 50%	clearly increased	drastically increased	enhanced	equally as well as or better than endogenous HSF1 activated by a moderately severe heat shock; also recorded: strongly activated	–	–
human HSF1d453–523 [HSF1(−)]	–	–	–	–	–	greatly reduced	severely inhibited
